Patent publication US20260159497A1, “SOLID FORMS OF A COMPLEMENT FACTOR B INHIBITOR” (Novartis Pharma AG, priority 2022, published 2026)
Like-named read-outs stand apart in the source and are kept apart here.

How the values were obtained:
Assay type in all cases: physicochemical
[1] = Water content by Karl Fischer titration; details: ambient conditions; relative to total weight of the salt / free form
[2] = Solubility in Simulated Fluids at 37° C.; details: for solubility at 30 min / solubility at 24 h: 37 °C, thermodynamic from solid; for solubility at 30 min: read-out: Solubility (mg/mL) 30 min; for solubility at 24 h: read-out: Solubility (mg/mL) 24 h
From the text: Solubility data of Form A (S)-4-(2,2-difluoro-7-((5-methoxy-7-methyl-1H-indol-4-yl)methyl)-7-azaspiro[3.5]nonan-6-yl)benzoic acid, Form B (S)-4-(2,2-difluoro-7-((5-methoxy-7-methyl-1H-indol-4-yl)methyl)-7-azaspiro[3.5]nonan-6-yl)benzoic acid p-toluene sulfonic acid salt, Form C (S)-4-(2,2-difluoro-7-((5-methoxy-7-methyl-1H-indol-4-yl)methyl)-7-azaspiro[3.5]nonan-6-yl)benzoic acid p-toluene sulfonic acid salt, and Form D (S)-4-(2,2-difluoro-7-((5-methoxy-7-methyl-1H-indol-4-yl)methyl)-7-azaspiro[3.5]nonan-6-yl)benzoic acid hydrochloride salt in Simulated Fluids at 37° C.

[3] = Dynamic vapor sorption (DVS) mass change; details: for Mass change by DVS, Desorption (%) / Mass change by DVS, Sorption (%): Table 5, 25 degree C., based on dry weight; for Mass change by DVS, 1st Desorption (%) / Mass change by DVS, 1st Sorption (%) / Mass change by DVS, 2nd Desorption (%) / Mass change by DVS, 2nd Sorption (%): Table 6, DVS at 25 degree C.
From the text: [table] The mass change by DVS isotherm (2 cycles 40-0-95-0-40% RH) are in the tables below. The mass change is based on the dry weight of each.

## COc1cc(C)c2[nH]ccc2c1CN1CCC2(C[C@H]1c1ccc(C(=O)O)cc1)CC(F)(F)C2.Cc1ccc(S(=O)(=O)O)cc1 [Form B, (S)-4-(2,2-difluoro-7-((5-methoxy-7-methyl-1H-indol-4-yl)methyl)-7-azaspiro[3.5]nonan-6-yl)benzoic acid p-toluene sulfonate]
[1]
  water content by Karl Fischer titration: 2.3 % w/w
[2]; fassif, FaSSIF, 30 min
  solubility at 30 min: > 2 mg/mL
[2]; fessif, FeSSIF, 30 min
  solubility at 30 min: > 2 mg/mL
[2]; fessif, FeSSIF, 24 h
  solubility at 24 h: > 2 mg/mL
[2]; pH 7, water, Water, initial pH 7.00, 30 min
  solubility at 30 min: 0.48 mg/mL
[2]; pH 7, water, Water, initial pH 7.00, 24 h
  solubility at 24 h: 0.56 mg/mL
[2]; FaSSGF
  pH at 24 h: 1.5
[2]; FaSSGF, 30 min
  Solubility (mg/mL) 30 min: 0.40 mg/mL
[2]; FaSSGF, 24 h
  Solubility (mg/mL) 24 h: 0.54 mg/mL
[2]; FaSSIF
  pH at 24 h: 6.13
[2]; FaSSIF, 24 h
  Solubility (mg/mL) 24 h: 0.53 (salt mg/mL
[2]; FeSSIF
  pH at 24 h: 4.87
[2]; Water, initial pH 7.00
  pH at 24 h: 3.60
[3]
  water sorption and desorption behavior: reversible water sorption and desorption behavior with no hysteresis
[3]; 95% RH at 25° C.
  maximum water uptake in DVS: 2.67%
  moisture absorbed by DVS (absorbs up to): up to 2.7%
[3]; 0% RH
  Mass change by DVS, Desorption (%): 0.00%
  Mass change by DVS, Sorption (%): 0.00%
  Mass change by DVS, 1st Desorption (%): 0.00%
  Mass change by DVS, 1st Sorption (%): 0.00%
  Mass change by DVS, 2nd Desorption (%): −0.01%
  Mass change by DVS, 2nd Sorption (%): −0.01%
[3]; 10% RH
  Mass change by DVS, Desorption (%): 1.11%
  Mass change by DVS, Sorption (%): 1.08%
  Mass change by DVS, 1st Desorption (%): 1.13%
  Mass change by DVS, 1st Sorption (%): 1.11%
  Mass change by DVS, 2nd Desorption (%): 1.13%
  Mass change by DVS, 2nd Sorption (%): 1.11%
[3]; 20% RH
  Mass change by DVS, Desorption (%): 1.66%
  Mass change by DVS, Sorption (%): 1.64%
  Mass change by DVS, 1st Desorption (%): 1.70%
  Mass change by DVS, 1st Sorption (%): 1.69%
  Mass change by DVS, 2nd Desorption (%): 1.70%
  Mass change by DVS, 2nd Sorption (%): 1.68%
[3]; 30% RH
  Mass change by DVS, Desorption (%): 1.93%
  Mass change by DVS, Sorption (%): 1.92%
  Mass change by DVS, 1st Desorption (%): 1.98%
  Mass change by DVS, 1st Sorption (%): 1.97%
  Mass change by DVS, 2nd Desorption (%): 1.98%
  Mass change by DVS, 2nd Sorption (%): 1.97%
[3]; 40% RH
  Mass change by DVS, Desorption (%): 2.10%
  Mass change by DVS, Sorption (%): 2.09%
  Mass change by DVS, 1st Desorption (%): 2.16%
  Mass change by DVS, 1st Sorption (%): 2.15%
  Mass change by DVS, 2nd Desorption (%): 2.16%
  Mass change by DVS, 2nd Sorption (%): 2.15%
[3]; 50% RH
  Mass change by DVS, Desorption (%): 2.22%
  Mass change by DVS, Sorption (%): 2.21%
  Mass change by DVS, 1st Sorption (%): 2.28%
  Mass change by DVS, 2nd Desorption (%): 2.29%
[3]; 60% RH
  Mass change by DVS, Desorption (%): 2.32%
  Mass change by DVS, Sorption (%): 2.31%
  Mass change by DVS, 1st Sorption (%): 2.37%
  Mass change by DVS, 2nd Desorption (%): 2.38%
[3]; 70% RH
  Mass change by DVS, Desorption (%): 2.39%
  Mass change by DVS, Sorption (%): 2.38%
  Mass change by DVS, 1st Sorption (%): 2.45%
  Mass change by DVS, 2nd Desorption (%): 2.47%
[3]; 80% RH
  Mass change by DVS, Desorption (%): 2.46%
  Mass change by DVS, Sorption (%): 2.45%
  Mass change by DVS, 1st Sorption (%): 2.53%
  Mass change by DVS, 2nd Desorption (%): 2.54%
[3]; 90% RH
  Mass change by DVS, Desorption (%): 2.54%
  Mass change by DVS, Sorption (%): 2.54%
  Mass change by DVS, 1st Sorption (%): 2.60%
  Mass change by DVS, 2nd Desorption (%): 2.61%
[3]; 95% RH
  Mass change by DVS, Desorption (%): 2.62%
  Mass change by DVS, Sorption (%): 2.62%
  Mass change by DVS, 1st Sorption (%): 2.67%
